Measurements from paper PMC9332833 (Cancers, 2022).

What was measured:
K562 cells [1] = experiment: Annexin V-FITC/PI apoptosis measurement, K562; assay type: cell-based, human; details: 5 µM, 24 h
Experimental: Cells were seeded in 6-well plates (K562 or K562-MDR1) or in 24-well plates (CD34^+ cells). After 24 h, BK124.1 or DMSO was added. After a further 24 h, cells were stained using the Annexin V-FITC kit for the detection of apoptosis (BD, Franklin Lakes, NJ, USA) and immediately analyzed on a BD FACSCalibur using CellQuest software (BD, Franklin Lakes, NJ, USA). […]
(§1) incubated overnight at 37 °C and analyzed using an iMark Microp late absorbance reader (Bio-Rad, Hercules, CA, USA). Results were calculated relative to control cells treated with DMSO only.
(§2) […] CD34+ cells were plated at a concentration of 2.5 × 10^5 cells/mL in a 24-well plate. […] A f t e r a further 24 hours, cells were harvested and stained according to the manufacturer's protocol using the Annexin V-FITC kit for the detection of apoptosis (BD, Franklin Lakes, NJ, USA). Stained cells were immediately analyzed on a BD FACSCalibur using CellQuest softwa re (BD, Franklin Lakes, NJ, USA).
(§3) Cells were seeded at a concentration of 1-2 × 10^5 cells/mL in a 6-well plate. After 24 hours of pre-incubation, BK124.1 in DMSO was added to the cells (vDMSO/vmedium), and incubated for 24 or 48 hours.
(§4) After incubation, cells were washed twice with ice-cold PBS (Mg2+ and Ca2+-free), resuspended in ice-cold 70% ethanol, and placed at -20 °C for 24 hours. […]
(§5) Flow cytometry analysis of CD243 (P-glycoprotein) […]

[2] = tested on: CD34+/CD38- leukemia stem cells from CML patients; experiment: Annexin V-FITC/PI apoptosis in CD34+/CD38- subpopulation; assay type: cell-based, human; details: 2.5 or 5 µM, within 24 h, 3 patients; dose dependent
Experimental: Pre-cultured cells were treated with BK124.1 or DMSO for 24 h. For purity analysis, cells were stained with anti-human CD34-APC antibody, anti-human CD38-PE (Biolegend, San Diego, CA, USA), and propidium iodide according to the manufacturers’ protocols. For apoptosis analysis, cells were additionally stained with Annexin V-FITC kit (BD, Franklin Lakes, NJ, USA) according to the manufacturer’s protocol. Appropriate isotype controls were included. Stained cells were immediately analyzed on a BD LSRFortessa flow cytometer with FlowJo software (BD, Franklin Lakes, NJ, USA), after exclusion of doublets. Purity was analyzed on live cells only, and apoptosis separately for each population of cells (CD34^+/CD38^+ or CD34^+/CD38^−).
[…] Next, we isolated CD34+ cells (EasySep™ Human CD34 Positive Selection Kit II, StemCell Technologies, Vancouver, Canada), counted them and assessed viability with Muse Cell Analyzer (Merck Millipore, Burlington, MA, USA). […] The purity of the live CD34+ fraction was assessed by flow cytometry with anti-human CD34-APC antibody, compared with an appropriate isotype control (Biolegend, San Diego, CA, USA), and propidium iodide (Sigma-Aldrich, St. Louis, MO, USA). […]
[…] In both cases stained cells were immediately analyzed on a BD LSRFortessa flow cytometer and analyzed with FlowJo software (BD, Franklin Lakes, NJ, USA). […]

K562 cells [3] = experiment: K562 cell cycle analysis; assay type: cell-based, human; details: 5 µM, after 24 h; lesser extent after 48 h
Experimental: BK124.1 or DMSO was added to cells and after 24 or 48 h incubation. Cells were fixed and stained with 50 µg/mL propidium iodide (Sigma-Aldrich, St. Louis, MO, USA) with 50 µg/mL DNAse-free RNase. The cell cycle was analyzed on a FACSCalibur cytometer (Becton Dickinson, Franklin Lakes, NJ, USA) using ModFit LT 3.2 software (Verity Software House, Topsham, ME, USA). […]
as §1, §2, §3, §4, §5

K562 cells [4] = tested on: K562 cells; set-up: method as in PMID 26902600, PMID 31487824; details: chronic myelogenous (CML) K562 cells from blast crisis; cited from earlier work

## CCC12C(=O)C(CC)(C(c3ccccc3)=C1c1ccccc1)C1C(=O)N(CC(O)CNC(C)C)C(=O)C12 (stereo not shown) [BK124.1, 4-[2-hydroxy-3-(propan-2-ylamino)propyl]-1,7-diethyl-8,9-diphenyl-4-azatricyclo [5.2.1.02,6]dec-8-ene-3,5,10-trione]
K562 cells [1]
  Apoptosis: 61.2%
[2]
  Apoptosis in CD34+/CD38- leukemia stem cells: induced apoptosis
K562 cells [3]
  Cell cycle effect: profound G2/M arrest
K562 cells [4]
  Toxicity towards human leukemia cells: selectively toxic
